From patent US20100143379A1 (priority 2005, published 2010)
Each block holds one molecule with its values, some of them ahead of it.

Tests used:
Assay type in all cases: cell-based
CD44 = CD44 phospho-serine sandwich ELISA; settings: H-89, 20 μM; RO-31-2880, 10 μM
Method: (§1) FIGS. 12A-12E show the phosphoserine content of CD74 and CD44 measured by ELISA. […] The ELISA values represent the mean±SD of triplicate measurements. Experiments were replicated twice. *P<0.02 versus corresponding control (Student's T test, two-tailed). […] Cell lysates were prepared and probed for PKA and PKC using phospho-specific, and total anti-PKA and anti-PKC antibodies.
Ser325 is constitutively phosphorylated in resting cells, but undergoes de-phosphorylation in response to PKC activating stimuli such as phorbol esters. […] The effect of MIF-stimulation CD44 phosphorylation was analyzed in the COS-7 and MEF cell lines by sandwich ELISA using an anti-CD44 capture antibody to quantify CD44 phospho-serine residues (Perez et al. (2003). Nature Immunol. 4:1083-92). […]
The serine phosphorylation of CD74 and CD44 was quantified by specific sandwich ELISA (Perez et al. (2003). Nature Immunol 4:1083-92). […] After several washes (0.5% Tween-20 in PBS), 0.2 μg/ml anti-phospho-serine antibody (Hypromatrix) conjugated with horseradish peroxidase was added, and immunoreactivity measured by the TMB reagent (DakoCytomation) and the data analyzed with SpectraMax Plus (Molecular Devices). […]

CD74 = CD74 phospho-serine sandwich ELISA; settings: H-89 20 μM; RO-31-2880 10 μM; COS-7/CD74+CD44
Method: as §1
The observation that the phosphoserine content of CD74 increased only in cells that expressed CD74 and full-length CD44 is consistent with the notion that the MIF-mediated phosphorylation of CD74 is dependent on the activity of the CD44 intracytoplasmic domain.
The serine phosphorylation of CD74 and CD44 was quantified by specific sandwich ELISA (Perez et al. (2003). Nature Immunol 4:1083-92). […] After several washes (0.5% Tween-20 in PBS), 0.2 μg/ml anti-phospho-serine antibody (Hypromatrix) conjugated with horseradish peroxidase was added, and immunoreactivity measured by the TMB reagent (DakoCytomation) and the data analyzed with SpectraMax Plus (Molecular Devices).
Cell lysates were collected and analyzed by immunoblots using a pair of anti-phospho-PICA and anti-(total)-PKA antibodies, a pair of anti-phospho-PKC (all from Cell Signaling) and anti-(total)-PKC (Santa Cruz) antibodies, or a pair of anti-phospho-p56^lck (Cell Signaling) and anti-(total) p56^lck (sc-433, Santa Cruz) antibodies.

ERK-1/2 = ERK-1/2 phosphorylation in COS-7/M6 stable transformants (Western blot); settings: 20 nM; COS-7/CD74+CD44 cell line or primary macrophages
[1] = system: murine bone marrow progenitor cultures; assay: BFU-E and CFU-E erythropoietin-dependent progenitor colony assays; settings: 10-100 ng/ml MIF, 1-20 ng/ml TNFα, or 10-100 U/ml IFNγ
Method: Bone marrow cells were harvested, plated in a methylcellulose-based medium, and colony numbers scored after the addition of murine cytokines. Individual assays were performed in duplicate, and the data shown is a compilation of 3-6 independently performed experiments. % inhibition of colony formation is calculated with reference to a cytokine-minus control. All values shown are the mean±SD and are significant when compared to wells with no cytokine addition (P<0.05). CFU-E: colony forming unit—erythroid; BFU-E: burst-forming unit—erythroid.
The two inflammatory cytokines, TNFα and IFNγ, were also studied. TNFα and IFNγ are produced as a consequence of macrophage and T cell activation (McDevitt et al. 2004. Curr Hematol Rep 3:97-106). The appearance of BFU-E and CFU-E were quantified after culture with these cytokines, applied either alone or in combination.
BFU-E and CFU-E Progenitor Cell Assays. The progenitor cell (colony) assays were performed according to the standardized methods described previously (Martiney et al. 2000. Infection and Immunity 68:2259-2267) and protocols from StemCell Technologies (Vancouver; BC, Canada). Briefly, washed murine bone marrow cells were plated in sterile 35-mm dishes containing a methylcellulose-based medium and growth factors. The total number of bone marrow cells plated in duplicate culture dishes were as follows: 2×10^5 for CFU-E and 5×10^5 for BFU-E. MethoCult™ M3334 was utilized for the CFU-E and BFU-E colony assays. The media for CFU-E and BFU-E was volume adjusted by adding 1 part Isocove's MDM to 9 parts MethoCult™ M3334 to give final concentrations of the following components: 15% fetal bovine serum, 1% BSA, […] transferrin, […] insulin, 1% methylcellulose, 10^−4 M 2-mercaptoethanol, 2 mM L-glutamine and 3 units/ml erythropoietin. Each assay of different bone marrow progenitor cells was performed independently 3-6 times.

HIV-1ADA = assay: HIV-1 replication in monocyte-derived macrophage cultures (RT activity); settings: polymyxin B 10 μg/ml added to MIF 50 ng/ml
Method: (§2) Triplicate cultures of monocyte-derived macrophages were infected with HIV-1ADA in the presence of anti-MIF MAb (25 μg/ml) or isotype control. Virus replication was monitored by RT activity in culture supernatants. Results are presented as mean±SD. […] Control cultures were cultivated with PMB mixed with an isotype immunoglobulin with or without MIF.
as §2, with “To investigate this possibility, HIV-infected macrophages were cultured in the presence of a neutralizing anti-MIF antibody or isotype control. Triplicate” for “Triplicate”, “supernatants.” for “supernatants. Results are presented as mean±SD.”

- serine phosphorylation of CD44 after MIF stimulation in presence of kinase inhibitor (CD44): reduced by PKA inhibition
- MIF stimulation of CD74 phosphorylation in presence of kinase inhibitor (CD74): decreased markedly
Molecule: O=S(=O)(NCCNC/C=C/c1ccc(Br)cc1)c1cccc2cnccc12 [H-89, reference compound]

Molecule: COc1c(C=O)c(O)cc2c1C(=O)c1ccccc1C2=O [damnacanthal, reference compound]
- phosphorylation of ERK1/2 (ERK-1/2): inhibition of the phosphorylation of p56^lck and ERK1/2

Molecule: TNFα
- BFU-E and CFU-E colony formation [1]: dose-dependently inhibited

Molecule: polymyxin B [reference compound]
- inhibitory effect of MIF on viral replication (HIV-1ADA): did not significantly reduce the inhibitory effect of MIF

B1: IFNγ: Recombinant mouse IFN-γ from R&D Systems (protein, UniProt P01580 23-155, looked up)
Interferon gamma: HGTVIESLESLNNYFNSSGIDVEEKSLFLDIWRNWQKDGDMKILQSQIISFYLRLFEVLKDNQAISNNISVIESHLITTFFSNSKAKKDAFMSIAKFEVNNPQVQRQAFNELIRVVHQLLPESSLRKRKRSRC
- BFU-E and CFU-E colony formation [1]: dose-dependently inhibited
